Values belong to the molecule of their own block, whether it stands above or below them. d = 2'-deoxy (DNA); r = 2'-OH (RNA)
Assays:
[1] = test system: HIF-1α; assay: Anoxia-induced HIF-1α stabilization in siRNA transfected MIA-Paca-2 cells; assay type: cell-based, human; conditions: 0.2% O2 (anoxia) 16 hours; FIG. 4A
Method: (§1) Nuclear and cytosolic extracts from MIF-depleted cells were exposed to normoxia, anoxia (FIG. 4A) or hypoxia (FIG. 4B) and immunoblotted for HIF-1α. FIG. 4C is a graph showing real time PCR analysis of VEGF mRNA levels from control and MIF-depleted cells exposed to hypoxia for different times.
(§2) MIF-specific siRNA was transfected into MIA-Paca-2 cells before being incubated in 0.2% O2 (anoxia) for 16 hours. […] To more thoroughly investigate the requirements for MIF in hypoxia-mediated HIF-1α stabilization, a time course evaluating MIF containing vs. deficient pancreatic adenocarcinoma cells exposed to 1% O2 (hypoxia) was performed.

[2] = test system: MIF; assay: MIF depletion by siRNA in MIA-Paca-2 cells (immunoblot); assay type: cell-based, human; conditions: FIG. 4A
Method: as §1, §2

[3] = test system: A549 human lung adenocarcinoma cells; assay: A549 NSCLC xenograft tumor outgrowth; assay type: in vivo, Balb/c (nu/nu) mice; conditions: 2 mg intraperitoneally every day; vehicle mice developed lesions beginning at day 16; FIG. 12
Method: FIG. 12 is a graph showing Inhibition of NSCLC tumor growth by the MIF inhibitor 4-iodo-6-phenylpyrimidine. Balb/c (nu/nu mice were injected with 1×10^6 A549 human lung adenocarcinoma cells subcutaneously (4 mice/group). Vehicle or 4-iodo-6-phenylpyrimidine (Cmpd 16; 2 mg) were injected intraperitoneally every day for the course of the study. Tumor growth was monitored by palpation every fourth day as indicated. Results are expressed as percent of tumor free mice/group.
In a study designed to evaluate the in vivo efficacy of anti-MIF compounds, 4-iodo-6-phenylpyrimidine (compound #16) was tested in a xenograft model of human non-small cell lung cancer (NSCLC) outgrowth.

[4] = test system: HIF-1α; assay: CoCl2-induced HIF-1α stabilization in MIA-PaCa pancreatic adenocarcinoma cells (nuclear lysate immunoblot); assay type: cell-based, human; conditions: for suppression of HIF-1α, of control: 10 μM
Method: (§3) FIGS. 9A-9C are pictures of immunoblots showing MIF tautomerase inhibitors block HIF-1 stabilization in an MIF-specific manner. […] After 5 hours, nuclear lysates were isolated and subjected to immunoblotting for HIF-1. In FIGS. 9A and 9B, MIA-PaCa pancreatic adenocarcinoma cells were used. In FIG. 9C, MIF+/+ and MIF−/− mouse embryonic fibroblasts were evaluated.
As noted hereinabove, (see FIG. 4), it has been determined that MIF is necessary for hypoxia and prolyl hydroxylase inhibitor-induced HIF-1αstabilization and subsequent hypoxic adaptation of pancreatic adenocarcinoma cells. It was next tested whether MIF pharmacologic inhibitors were capable of recapitulating the destabilizing effects on HIF-1α we had observed using MIF siRNA (FIG. 4). In addition to testing the newly-determined MIF antagonist 4-iodo-6-phenylpyrimidine (also referred to as “compound #16”), the TI compound identified in the Orita screen (FIG. 8) was also tested.

[5] = MTD / toxicity study, daily injections for 7 days; assay type: in vivo; conditions: daily injections for 7 days of 0.5, 1, 2 and 4 mg (25, 50, 100 and 200 mg/kg)
Source text: (§4) A study to determine the MTD and in vivo inhibitory activity of compound #16 was also completed. […] In vivo enzyme inhibition by compound #16 was next analyzed. […] Further, the discovery of the present MIF inhibitory compounds of Formula I disclosed herein by the present novel virtual screening and systematic testing methods validates the present approach and experimental design to identify further MIF small molecule inhibitors.

[6] = target: T1, MIF/sCD74 (Homo sapiens, UniProt P14174); assay: MIF/MIF receptor (CD74) capture assay; assay type: binding; conditions: 0.1 μM antagonist against 0.2 μM biotinylated MIF (maximal inhibition possible 50%); FIG. 14B
T1 construct: made in house; host or cells: E. coli BL21 (DE3)pLysS (sCD74)
T1 sequence (P14174 2-115 limits assumed): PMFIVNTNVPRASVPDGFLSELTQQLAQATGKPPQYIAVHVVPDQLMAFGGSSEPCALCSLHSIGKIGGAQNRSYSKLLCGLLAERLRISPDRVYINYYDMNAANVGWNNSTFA
Method: FIGS. 14A-14C are a schematic (FIG. 14C) of a MIF/MIF receptor capture assay and graphs of data collected from the assay (FIGS. 14A and 14B) that provides a tool for structure-function studies of MIF muteins and candidate inhibitors. […] FIG. 14A is a graph of data from the assay where CD74 coated plates were pre-incubated with the indicated concentrations of native MIF (MIF), denatured MIF or P1G MIF followed by the addition of 0.2 μM biotin-hrMIF. FIG. 14B is a graph of data from the assay where 1.0 μM of denatured MIF (dMIF), native MIF (MIF) or anti-CD74 were pre-incubated with soluble CD74 for 30 mins before adding 0.2 μM biotin-hrMIF. For inhibitors, 0.1 μM ISO-1 or 4-iodo-6-phenyl pyrimidine (Cmp16) were pre-incubated for 30 mins with 0.2 μM biotin-hrMIF before adding mixture to CD74 coated plate. In both FIGS. 14A and 14B, plates were developed 2 hours later by incubating Streptavidin-AP followed by PnPP and measurement at OD405.
As previously noted, the ability of small molecule antagonists to block MIFs biological functions requires the blockade of MIF binding to its cell surface receptor (Meyer-Siegler et al., 2006). […]
96 well plates can be coated with 60 μl/well of purified, soluble CD74 (CD74^73-232) at 0.1 mg/ml and incubated at 4° C. overnight. […] After washing, 60 μl/well of PNPP (Sigma) is added and allowed to develop in the dark until being read at 405 nm.

[7] = test system: A549 human lung adenocarcinoma cells; assay: A549 anchorage-independent growth in soft agar; assay type: cell-based; conditions: FIG. 11; for inhibition of A549 soft agar growth: 10, 50 or 100 μM, 20 days
Method: FIG. 11 is a graph showing inhibitors of MIF prevent anchorage-independent growth. 10^5 A549 human lung adenocarcinoma cells were plated in soft agar, containing vehicle (0.1% DMSO) or 10, 50 or 100 μM ISO-1 or 4-iodo-6-phenylpyrimidine (CMPD 16). 20 days later, colonies were stained and enumerated. Data are representative of two independent experiments.

[8] = test system: HIF-1α; assay: HIF-1α stabilization in MIF-containing and MIF-deficient mouse embryonic fibroblasts; assay type: cell-based; conditions: FIG. 9C
Method: as §3
Lastly, in order to verify that the effect of #16 on HIF-1α inhibition is through its inhibitory effects on MIF, MIF-containing cells and MIF-deficient cells were tested for inhibitory activity.

[9] = test system: HIF-1α; assay: Total HIF-1α ELISA, CoCl2-induced HIF stabilization; assay type: cell-based; conditions: Homo sapiens, compound #16 at 50 μM, read-out: inhibition of CoCl2-induced HIF stabilization, of control
Source text: Screening of HIF-1α de-stabilization by candidate MIF inhibitors. The presently disclosed discovery that MIF plays a central role in HIF stability was from studies done in pancreatic adenocarcinoma cell lines. […] This cell line can be utilized for large scale testing of candidate MIF antagonists. In order to scale up this in vitro screen, a DuoSet ELISA-based assay to detect total HIF-1α in human cell lysates can be utilized (R & D Systems). […] MIA-Paca-2 cells can be plated at 5×10^5 cells/well in 24 well plates for 16 hours. Media can be replaced with fresh media containing 0.1% DMSO (− control), 50 μM #16 (+ control) and 5, 50 μM concentrations of test inhibitor, all in duplicate wells. After 1 hour, cells can be challenged with 150 μM CoCl2 for an additional 6 hours. After rinsing the cells twice with PBS, supplied kit lysis buffer can be used to lyse the cells following manufacturer's directions. Prior coating and blocking of HIF-1α capture antibody can be performed according to instructions and diluted cell lysates can be assayed on the HIF-1α ELISA plates.

[10] = target: T2, recombinant MIF (rMIF) (Homo sapiens, UniProt P14174); assay: L-dopachrome methyl ester tautomerase assay; assay type: biochemical
T2 construct: made in house
T2 sequence (P14174 2-115 limits assumed): T1 sequence (P14174 2-115 limits assumed)
Method: 500 nM recombinant MIF (rMIF) was pre-mixed for either 5 (filled) or 10 (open) minutes with the indicated inhibitor concentrations followed by the addition of 2 mM final concentration of L-dopachrome methyl ester substrate. 5 minutes later OD 475 was measured spectrophotometrically, with tautomerization leading to colorless substrate.
Dopachrome tautomerase assay. […] MIF catalysis and inhibitory studies can be performed as described (Lubetsky et al., 2002). […] Activity can be determined at room temperature by adding dopachrome methyl ester (0.3 ml) to a cuvette containing 500 nM rMIF (Bernhagen et al., 1994) in 50 mM potassium phosphate buffer, pH 6, 0.5 mM EDTA and 5 minutes later measuring the decrease in absorbance at 475 nm spectrophotometrically. […] Additionally, candidate inhibitors identified in the last section of the present Example can be dissolved in DMSO at various concentrations and added to the cuvette (final concentration of DMSO will be no more than 0.1%) with the MIF 1 minute prior to the addition of the dopachrome substrate.

[11] = test system: VEGF; assay: CoCl2-induced VEGF expression and secretion (ELISA); assay type: cell-based; conditions: read-out: suppression of PHD inhibitor (CoCl2) induced VEGF
Source text: It was next tested whether the observed differences in the catalytic inhibitory activities between these two compounds was similarly observed in this biological assay of MIF inhibition. […] Of note, this ˜5 fold difference in biological inhibitory activity closely corresponds to the ˜5 fold difference in enzymatic inhibitory activity that was observed when comparing these two compounds (FIG. 8).

[12] = target: T3, endogenous liver MIF (Mus musculus, UniProt P34884); assay: In vivo inhibition of liver MIF tautomerase activity; parameters: species or system C57BI/6 mice; conditions: single bolus injection 50 mg/kg, 6 hours post-injection, FIG. 13, read-out: inhibition of endogenous liver MIF enzyme tautomerase activity
T3 construct: from tissue; host or cells: mouse liver homogenate
Method: FIG. 13 is a graph showing the MIF inhibitor 4-iodo-6-phenyl pyrimidine inhibits MIF in vivo. C57BI/6 mice were injected with corn oil or 1 mg 4-iodo-6-phenyl pyrimidine (# 16) suspended in corn oil for 6 hours before removal of the livers. After homogenizing tissue, […] total liver protein was assessed for L-dopachrome methyl ester tautomerase activity.
as §4

[13] = test system: A549 cells; assay: A549 cell migration in collagen coated transwell chambers; assay type: cell-based, human; conditions: FIG. 10B
Method: In FIG. 10A, 500 nM rMIF was pre-mixed for 30 seconds with the indicated inhibitor concentrations followed by the addition of 2 mM final concentration of L-dopachrome methyl ester substrate. 5 minutes later OD 475 was measured spectrophotometrically (tautomerization leads to colorless substrate) and resulting data graphed. In FIG. 10B, 2×10^5 A549 cells transfected or pre-incubated with the indicated inhibitor or DMSO were added to the upper chamber of collagen coated transwell chambers. 16 hours later cells in the upper chamber were removed by swabbing and the bottom of the membranes were stained with crystal violet, solubilized, read at OD 570, and resulting data graphed.

Molecule: MIF siRNA: short interfering RNA (siRNA) oligos designed against human MIF; sense SEQ ID NO:3, antisense SEQ ID NO:4 (sense CCUUCUGGUGGGGAGAAAUTT; antisense AUUUCUCCCCACCAGAAGGTT; sugars from the 5' end r19 d2, backbone not given here)
HIF-1α stabilization in nuclei after MIF depletion [1]: completely deficient | loss of cytoplasmic MIF expression [2]: greater than 90%

Molecule: Ic1cc(-c2ccccc2)ncn1 [compound #16, 4-iodo-6-phenylpyrimidine]
tumor outgrowth (tumor free mice) [3]: remained tumor free | suppression of HIF-1α, of control ([4]; FIG. 9B): ~50% | inhibition of CoCl2-induced HIF-1α stabilization ([4]; 100 μM, pancreatic carcinoma cells, FIG. 9A): completely inhibited | difference in biological inhibitory activity (HIF-1α) between #16 and TI ([4]; 4-iodo-6-phenylpyrimidine versus TI): ~5 fold | toxicity [5]: no apparent toxicity | inhibition of MIF receptor (CD74) binding [6]: 50% | inhibition of A549 soft agar growth [7]: inhibit A549 soft agar growth | potency relative to ISO-1, soft agar growth [7]: 5-10 fold | HIF-1α stabilization block in MIF-containing fibroblasts ([8]; MIF^+/− murine embryonic fibroblasts): potently blocks | HIF-1α stabilization in MIF-deficient fibroblasts ([8]; MIF^−/− fibroblasts): unaffected | inhibition at 50 µM [9]: 75 to 90% | IC50 ([10]; 500 nM rMIF pre-mixed 5 or 10 min with inhibitor, 2 mM L-dopachrome methyl ester, FIG. 8, read-out: IC50, MIF enzyme (tautomerase) inhibition): ~5 µM | inhibition at 50 µM [11]: > 80% | inhibition at 50 mg/kg [12]: > 50%

inhibition of MIF receptor (CD74) binding [6]: very efficient blocking | enzyme inhibition at 10 μM ([10]; 10 μM, FIG. 10A): completely inactive
Molecule: COC(=O)CC1CC(c2ccc(O)cc2)=NO1 (stereo not shown) [ISO-1, S, R-3-(4-hydroxyphenyl)-4,5-dihydro-5-isoxazole acetic acid methyl ester, reference compound]
inhibition of CoCl2-induced HIF-1α stabilization ([4]; concentrations of 100 μM or higher): only moderately effective | inhibition of A549 soft agar growth [7]: inhibit A549 soft agar growth | migration inhibition at 10 μM [13]: completely inactive

Molecule: O=c1c(-c2ccc(O)c(O)c2)coc2cc(O)ccc12 [TI, 3′, 4′,7-tryhydroxyisoflavone, reference compound]
suppression of HIF-1α, of control ([4]; FIG. 9B): no inhibitory activity | inhibition of HIF-1α stabilization ([4]; 50 μM, FIG. 9B): only slight inhibitory activity | MIF inhibitory activity in applicant's assay compared with reported Ki ([10]; TI from two commercial sources): several orders of magnitude weaker than claimed | inhibition at 50 µM [11]: ~20%
